Legend:
[1] = target: T1, Human KIF18A (1-376aa) (Homo sapiens, UniProt Q8NI77); assay: KIF18A enzyme activity assay (ADP-Glo); format: biochemical; details: microtubule 50 μg/mL, ATP (Km 70 μM), room temperature, 15 min, read-out: KIF18A inhibitory activity IC50
T1 construct: Human KIF18A (1-376aa) protease used in the experiments; purchased Shanghai Panchao Biotechnology Co., Ltd
T1 sequence (Q8NI77 1-376): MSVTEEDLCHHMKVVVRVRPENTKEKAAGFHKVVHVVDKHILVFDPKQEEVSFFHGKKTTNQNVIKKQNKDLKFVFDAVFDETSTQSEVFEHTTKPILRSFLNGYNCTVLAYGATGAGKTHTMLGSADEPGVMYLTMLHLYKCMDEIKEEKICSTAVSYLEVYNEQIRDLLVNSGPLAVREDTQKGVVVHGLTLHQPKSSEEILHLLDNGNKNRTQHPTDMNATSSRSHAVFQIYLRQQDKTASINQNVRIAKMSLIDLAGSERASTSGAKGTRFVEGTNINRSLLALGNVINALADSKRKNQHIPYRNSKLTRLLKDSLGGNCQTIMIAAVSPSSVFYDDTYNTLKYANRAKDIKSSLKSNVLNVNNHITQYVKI
Procedure: Test Example 1: KIF18A Enzyme Activity Assay
Based on the ADP-Glo™ Kinase Assay, the ADP amount generated in the reaction was detected to reflect the enzyme activity of KIF18A.
Human KIF18A (1-376aa) […] used in the experiments, expressed by Shanghai Panchao Biotechnology Co., Ltd., was stored at −80 °C (no more than 5 freeze-thaw cycles).
The assay kit (ADP-Glo™ Kinase Assay) was purchased from Promega (Cat. No. V9101) and stored at −30 °C. The kit detects the enzyme activity by measuring ADP generated in enzyme reaction. The KIF18A enzyme and ATP generate ADP. The remaining ATP in this reaction is consumed by the ADP-Glo reagent, while the ADP generated by the KIF18A enzyme reaction is converted back to ATP by the assay reagent. The ATP then reacts with luciferin in the presence of Ultra-Glo™ luciferase, producing luminescence. The luminescent signal is positively correlated with the activity of the KIF18A enzyme.
Compounds were each subjected to 3-fold serial dilution starting from 10 μM to obtain 10 concentration points. The compounds and pure DMSO (control) were pipetted into wells of a 384-well plate using an Echo instrument, and the total volume of compound and DMSO was 100 nL; sample concentrations of gradient dilution were obtained by the instrument based on different ratios. Preparation of a KIF18A enzyme reaction buffer: […], 10 mM MgCl2, 0.01% Pluronic F-68, 1 μM Taxol, and 50 μg/mL Microtubule. KIF18A and the enzyme reaction buffer were mixed, and then the mixed solution was added to the 384-well plate and incubated at room temperature for 15 min. ATP (Km 70 μM) was then added to the mixed solution, and the mixed solution was incubated at room temperature for 15 min. 10 μL of ADP-Glo™ Reagent was well mixed with 10 μL of the mixed solution, and the mixture was incubated at room temperature for 40 min. Finally, 20 μL of ADP-Glo™ Detection Reagent was added, and the mixture was incubated at room temperature for 30 min. The chemiluminescent signal in each well was measured using an Envision plate reader (PerkinElmer, emission wavelength: 400-700 nm). In the experiment, 1 column of wells with no compound and no enzyme (chemiluminescence value was taken as [RLU]background) and 1 column of wells with enzyme but no compound (chemiluminescence value was taken as [RLU]enzyme) were provided. The chemiluminescence value of the compound adding group was taken as [RLU]cpd. The inhibition rate of the compound on […] was calculated according to the following equation: inhibition rate (%)=([RLU]enzyme−[RLU]cpd)/([RLU]enzyme−[RLU]background)×100%, and the inhibitory activity IC50 value of the compound on the enzyme activity was calculated using a four-parameter Logistic Model method. In the following equation, x represents the logarithmic form of the concentration of compound, and f (x) represents an effect value (inhibition rate of enzyme activity at the concentration): F(x)=(A+((B−A)/(1+((C/x)^D)))). A. B, C, and D are four parameters.

[2] = tested on: OVCAR3 cells; assay: Inhibition of proliferation of OVCAR-3 cells (Cell-Titer Glo); format: cell-based; details: Homo sapiens, OVCAR-3, 72 h, 3 days, 1000 cells/well
Excerpt: Test Example 2. Test on Inhibition of Proliferation of OVCAR-3 Cells by Compounds of Present Disclosure
Cell and material: The human ovarian cancer cell line OVCAR3 was purchased from ATCC (Cat. No. HTB-161™), RPMI 1640 medium (Gibco #A1049101), penicillin-streptomycin (Gibco #15140122), and 0.25% Trypsin-EDTA (Gibco #25200056) were purchased from Gibco (U.S.), bovine insulin (Yeasen #40107ES60) was purchased from Yeasen, 384-well plates (Corning #CLS3765) was purchased from Corning (U.S.), and Cell-Titer Glo reagent (Promega #G7568) was purchased from Promega (U.S.).
Cell culture: OVCAR3 cells were cultured in RPMI 1640 complete medium (RPMI 1640 medium containing 20% fetal bovine serum, […] bovine insulin, and 1% penicillin-streptomycin) in an incubator (37 °C, 5% CO2), and the cells could be used in experiments when in the logarithmic growth phase.
Cell proliferation activity test: The Cell-Titer Glo reagent was used to test the compound for inhibition of proliferation of the OVCAR3 cell strain. The compound formulated with DMSO and pure DMSO (control) were each added to a 384-well plate using an Echo instrument; the compound was subjected to 3-fold serial dilution starting from 30 μM to obtain 11 concentration points, and the volume of the compound or DMSO added was 100 nL.
OVCAR3 cells were digested and resuspended in RPMI 1640 complete medium, and the suspension was added to a 384-well plate (1000 cells/50 μL/well) to be well mixed with the compound. The mixture was incubated in an incubator (37 °C, 5% CO2) for 3 days. The Cell-Titer Glo reagent was added at 25 µL/well, and the resulting mixture was well mixed by shaking and then incubated for 10 min. The Cell-Titer Glo readings were measured with a Multimode Plate Reader (brand: PerkinElmer; model: SIC-PV-018).
A negative control group (Bottom) was set, and the negative control group was medium wells with 0.2% DMSO added and was defined as 100% proliferation inhibition; the positive control group (Top) was OVCAR3 cell wells with 0.2% DMSO added.
The percent proliferation inhibition (% Inhibition) was calculated, and the curves were fit using the four-parameter equation, Y=Bottom+(Top−Bottom)/(1+(IC50/X)^HillSlope), to obtain the proliferation inhibition IC50 of the compound. • Percent inhibition: % Inhibition=(1−(Signal−Bottom)/(Top−Bottom))×100%. • Signal: Cell-Titer Glo reading of wells with compound added; • Bottom: Cell-Titer Glo reading of negative control wells; • Top: Cell-Titer Glo reading of positive control wells.

Compound | IC50 [1] | IC50 [2]
CCS(=O)(=O)Nc1ccc(C(=O)Nc2cc3c(c(N4CCC(F)(F)CC4)c2)CCC3)c(N2CCC3(CC2)CC3)c1 [Compound 73] | < 0.2 µM | 0.038 µM
CC1(C)Cn2c(nc3c(NC(=O)c4ccc(NS(=O)(=O)CCO)cc4N4CCC5(CC4)CC5)cccc32)CO1 [Compound 87] | < 0.2 µM | 0.031 µM
CCNC(=O)c1ccc(NC(=O)c2ccc(NS(=O)(=O)CCO)cc2N2CCC3(CC2)CC3)c2nc3n(c12)CCCCC3 [Compound 113] | < 0.2 µM | 0.00532 µM
N#Cc1ccc(NC(=O)c2ccc(NS(=O)(=O)CCO)cc2N2CCC3(CC2)CC3)c2nc3n(c12)CC1C3C1(F)F (stereo not shown) [Compound 110] | < 0.2 µM | 0.0112 µM
O=C(Nc1cccc2c1nc1n2CC2CC12)c1ccc(NS(=O)(=O)CCO)cc1N1CCC2(CC1)CC2 (stereo not shown) [Compound 48] | < 0.2 µM | 0.0204 µM
O=C(Nc1cccc2c1nc1n2CC2CC1O2)c1ccc(NS(=O)(=O)CCO)cc1N1CCC2(CC1)CC2 (stereo not shown) [Compound 59] | < 0.2 µM | 0.0233 µM
CC1Cn2c(nc3c(NC(=O)c4ccc(NS(=O)(=O)CCO)cc4N4CCC5(CC4)CC5)cccc32)CO1 (stereo not shown) [Compound 55] | < 0.2 µM | 0.0175 µM
O=C(Nc1cc2ccnn2c(N2CCC(F)(F)CC2)n1)c1ccc(NS(=O)(=O)CCO)cc1N1CCC2(CC1)CC2 [Compound 109] | < 0.2 µM | 0.0374 µM
O=C(Nc1cccc2c3c(nn12)C1CC1C3)c1ccc(NS(=O)(=O)CCO)cc1N1CCC2(CC1)CC2 (stereo not shown) [Compound 107] | < 0.2 µM | 0.0993 µM
O=C(Nc1cccc2c1nc1n2CCOCC1)c1ccc(NS(=O)(=O)CCO)cc1N1CCC2(CC1)CC2 [Compound 53] | < 0.2 µM | 0.021 µM
O=C(Nc1cccc2c1nc1n2CCCOC1)c1ccc(NS(=O)(=O)CCO)cc1N1CCC2(CC1)CC2 [Compound 54] | < 0.2 µM | 0.021 µM
O=C(Nc1cc2c(c(N3CCC(F)(F)CC3)n1)COC2)c1ccc(NS(=O)(=O)CCO)cc1N1CCC2(CC1)CC2 [Compound 67] | < 0.2 µM | 0.07 µM
O=C(Nc1cccc2c1nc1n2CC2CCC1C2(F)F)c1ccc(NS(=O)(=O)CCO)cc1N1CCC2(CC1)CC2 (stereo not shown) [Compound 74] | < 0.2 µM | 0.024 µM
O=C(Nc1cc2c(c(N3CC4C(C3)C4(F)F)c1)OCC2)c1ccc(NS(=O)(=O)CCO)cc1N1CCC2(CC1)CC2 (stereo not shown) [Compound 114] | < 0.2 µM | 0.0107 µM
O=C(Nc1cccc2c1nc1n2CC2CC1C2(F)F)c1ccc(NS(=O)(=O)CCO)cc1N1CCC2(CC1)CC2 (stereo not shown) [Compound 88] | < 0.2 µM | 0.098 µM
O=C(Nc1cc(N2CCC(F)(F)CC2)c2nccn2c1)c1ccc(NS(=O)(=O)CCO)cc1N1CCC2(CC1)CC2 [Compound 80] | < 0.2 µM | 0.024 µM
O=C(Nc1cccc2c1nc1n2CCCC1)c1ccc(S(=O)(=O)NCCO)cc1N1CCC2(CC1)CC2 [Compound 39] | < 0.2 µM | 0.0755 µM
O=C(Nc1cccc2c3c(nn12)CCCCC3)c1ccc(NS(=O)(=O)CCO)cc1N1CCC2(CC1)CC2 [Compound 64] | < 0.2 µM | 0.0657 µM
COC(=O)c1ccc(NC(=O)c2ccc(NS(=O)(=O)CCO)cc2N2CCC3(CC2)CC3)c2nc3n(c12)CCCCC3 [Compound 112] | < 0.2 µM | 0.0153 µM
O=C(Nc1cccc2c3n(nc12)CCCCC3)c1ccc(NS(=O)(=O)CCO)cc1N1CCC2(CC1)CC2 [Compound 78] | < 0.2 µM | 0.0453 µM
O=C(Nc1cccc2c1cc1n2CCCCC1)c1ccc(NS(=O)(=O)CCO)cc1N1CCC2(CC1)CC2 [Compound 115] | < 0.2 µM | 0.023 µM
O=C(Nc1cc2c(c(N3CCC(F)(F)CC3)n1)OCC2)c1ccc(NS(=O)(=O)CCO)cc1N1CCC2(CC1)CC2 [Compound 65] | < 0.5 µM | 0.0167 µM
O=C(Nc1cccc2c1nc1n2C2CCC1CC2)c1ccc(NS(=O)(=O)CCO)cc1N1CCC2(CC1)CC2 [Compound 47] | < 0.2 µM | 0.0562 µM
O=C(Nc1cc(N2CCC(F)(F)CC2)n2nccc2c1)c1ccc(NS(=O)(=O)CCO)cc1N1CCC2(CC1)CC2 [Compound 81] | < 0.2 µM | 0.0182 µM
O=C(Nc1cc2c(c(N3CCC(F)(F)CC3)c1)CCC2)c1ccc(NS(=O)(=O)CCO)cc1N1CCC2(CC1)CC2 [Compound 41] | < 0.2 µM | 0.0168 µM
O=C(Nc1cn2ccnc2c(N2CCC(F)(F)CC2)n1)c1ccc(NS(=O)(=O)CCO)cc1N1CCC2(CC1)CC2 [Compound 44] | < 0.2 µM | 0.00913 µM
